Laboratory results published in patent publication US11259522B2, “Control of resistant pests” (priority 2017, dated 2022).
Values after ≈ are worked out from the molar mass of the structure shown. Values joined by “and” are separate entries in the source; they are usually repeats but may differ in a detail not shown here. Equal entries are not always repeated. Where two headings read alike, the source gives them in different places.

Columns and labels:
[1] = test system: Aedes aegypti Liverpool strain (insecticide susceptible, LVP) L3 larvae; experiment: Mosquito larval dose response assay, LVP strain; details: read-out: Lethal Concentration (LC50) LVP Strain
[2] = test system: Aedes aegypti PRS Puerto Rican strain (synthetic pyrethroid resistant) L3 larvae; experiment: Mosquito larval dose response assay, PRS strain; details: read-out: Lethal Concentration (LC50) PRS Strain
[3] = test system: Rhyzopertha dominica strain QRD1440 (resistant to OP protectants and pyrethroids); experiment: Grain protectant bioassay on treated wheat, resistant lesser grain borer; details: Example 5, QRD1440, 1 ppm on wheat, replicates A, B, C
[4] = test system: M. persicae (green peach aphid) insecticide-susceptible population; experiment: Leaf dip bioassay, green peach aphid, susceptible population; assay type: in vivo, Myzus persicae
Procedure: (§1) Each colony was maintained separately on bok choi plants ([…]) within an exclusion cage in a constant temperature room at 24° C. with a photoperiod of 16:8 LD.
(§2) Laboratory bioassays were used to determine the efficacy of flavesone against M. persicae following the leaf dip method described in Moores et al. (1994, Pesticide Biochemistry and Physiology, 49, 114-120). A pilot study was first conducted which confirmed that the leaf dip method was appropriate to elicit a clear dose response for Flavocide 500EW against M. persicae, and to determine the appropriate rate range and timing of mortality assessments (scored at 24, 48, 72 & 96 hours) (data not shown).
(§3) Bioassays were then conducted to assess the efficacy of flavesone against a susceptible and resistant population of M. persicae, and to calculate LC values. The efficacy of a conventional insecticide, pirimicarb, was tested for comparison. Nine concentrations of flavesone ranging from 1×10^−3 to 10 times the proposed field rate (Table 15), and six concentrations of pirimicarb were serially diluted and tested, along with a water control, against the susceptible and resistant aphid populations. Leaf discs (25 mm diameter) cut from bok choi leaves were submerged for 1 second in the insecticide solutions, or in the water control, and placed adaxial side up on 10 g/L agar in 35 mm petri dishes. Six replicate leaf discs were prepared per treatment. Once leaves were air-dry, eight M. persicae nymphs were transferred to each insecticide-dipped leaf disc using a fine-haired paintbrush.
(§4) After aphid introduction, each petri dish was inverted onto a lid containing a 25 mm diameter filter paper to control humidity. All petri dishes were then placed into an incubator held at 18° C.±2° C. with a photoperiod of 16:8 LD cycle. At 48 & 96 hours, aphids were scored as alive (vibrant and moving freely), dead (not moving over a 5 second period), or incapacitated (inhibited movement).
(§5) Dose-response curves were generated by plotting percentage mortality against log concentration. Mortality data was analysed using a logistic regression model with random effects. Logistic regression is suited for the analysis of binary response data (i.e. dead/alive) with the random effect component of the model controlling for the non-independence of mortality scores within replicates. […] Population differences were tested by comparing the change in model deviance with and without the population factor (different regression intercepts for each population). Differences in regression slopes between populations were tested by comparing the change in model deviance with and without the population×dose interaction term.

[5] = test system: M. persicae (green peach aphid) population resistant to carbamates and synthetic pyrethroids; experiment: Leaf dip bioassay, green peach aphid, resistant population; assay type: in vivo, Myzus persicae; details: Resistant population; 0.025-2500.0 mg a.i./L; 48 and 96 hours
Procedure: as §1, §2, §3, §4, §5

[6] = Susceptible population, 96 hours exposure

CC1(C)[C@H](C(=O)O[C@H](C#N)c2cccc(Oc3ccccc3)c2)[C@@H]1C=C(Br)Br [Deltamethrin, deltamethrin, reference compound]
LC50 ([1]; 24 h): 0.0119 µg/mL (≈ 0.0236 µM)
LC50 ([1]; 48 h): 0.0049 µg/mL (≈ 0.0097 µM)
LC50 ([1]; 72 h): 0.0037 µg/mL (≈ 0.00732 µM)
LC50 ([2]; 24 h): 0.0522 µg/mL (≈ 0.103 µM)
LC50 ([2]; 48 h): 0.0501 µg/mL (≈ 0.0992 µM)
LC50 ([2]; 72 h): 0.0412 µg/mL (≈ 0.0816 µM)
F1 Progeny count No. dead/total ([3]; further 6 weeks): 0/142 and 0/79 and 2/292
14 Day adult mortality No. dead (total) [3]: 1/50 (2×) and 0/50

CC1(C)C(C=C(Cl)Cl)C1C(=O)OCc1cccc(Oc2ccccc2)c1 (stereo not drawn) [Permethrin, permethrin]
LC50 ([1]; 24 h): 0.0219 µg/mL (≈ 0.056 µM)
LC50 ([1]; 48 h): 0.0162 µg/mL (≈ 0.0414 µM)
LC50 ([1]; 72 h): 0.0166 µg/mL (≈ 0.0424 µM)
LC50 ([2]; 24 h): 0.164 µg/mL (≈ 0.42 µM)
LC50 ([2]; 48 h): 0.15 µg/mL (≈ 0.385 µM)
LC50 ([2]; 72 h): 0.128 µg/mL (≈ 0.327 µM)

Cc1nc(N(C)C)nc(OC(=O)N(C)C)c1C [Pirimicarb, pirimicarb, reference compound]
LC50 ([4]; Myzus persicae, foliar, 96 h, read-out: LC50 (mg a.i./L)): 18.5 µg/mL (≈ 77.6 µM)
LC90 (mg a.i./L) [4, 6]: 78.9 mg a.i./L
LC99 (mg a.i./L) [4, 6]: 384 mg a.i./L
mortality observed [5]: Very low mortality
